Measurements published in patent publication US20240181022A1, “AMURINS LYSINS, AND LYSIN-ANTIMICROBIAL PEPTIDE (AMP) CONSTRUCTS ACTIVE AGAINST GRAM-NEGATIVE BACTERIA” (priority 2021, published 2024).
≈ marks a conversion by molar mass, not a printed value. Where a SMILES comes first, the peptide text is derived from it. Where no end group is shown, it is not given here. [ ]: non-standard residue; d: D form.

Key:
B. cenocepacia = format: cell-based, Burkholderia cenocepacia
Protocol: (§1) The MBEC (after 2-hour treatments) was determined as described in Jones and Wozniak, PsI Produced by Mucoid Pseudomonas aeruginosa Contributes to the Establishment of Biofilms and Immune Evasion, Am. Soc. Microbiol. 2017, 8(3):e00864-17. Meropenem and tobramycin were included as controls and were both poorly active, with MBEC90 values of >256 μg/mL (data not shown).

M. scrofulaceum = test: MIC against M. scrofulaceum; format: cell-based, Mycobacterium scrofulaceum; conditions: M. scrofulaceum (ATCC 19981); CAAT media
M. smegmatis = test: MIC against M. smegmatis; format: cell-based, Mycobacterium smegmatis; conditions: M. smegmatis (MC 155); CAAT media
[1] = system: Gram-negative bacteria (including P. aeruginosa, E. cloacae, K. pneumoniae, E. coli, and A. baumannii); test: Inner membrane depolarization (diSC3-5 release); format: cell-based; conditions: equivalent or superior to melittin, LL37, RI-18, and PMBN
From the text: The mechanism of action of Chp peptides disclosed herein can also be evaluated by measuring the depolarization of the inner membrane of Gram-negative bacteria, including MDR and XDR strains. The inner membrane comprises […] phospholipids such as cardiolipin, phosphatidylglycerol, and phosphatidylserine. This creates a net negative charge at physiological pH, which is believed to enhance the binding of cationic peptides, including the Chp peptides disclosed herein. Upon permeabilization of the outer membrane, the ability of Chp peptides to induce dissipation of the cytoplasmic membrane electrical potential gradient (Ay) may be examined, for example by following the release of 3,3′-dipropylthiadicarbocyanine (diSC3-5) as a function of time compared to an untreated control. DiSC3-5 is a fluorophore that is a caged cation concentrated within the bacterial inner membrane and under the influence of the bacterial membrane electrical potential gradient. At high concentrations, diSC3-5 self-quenches, leading to the suppression of fluorescence. When the inner membrane deteriorates or becomes leaky for cations, including protons, the Δψ dissipates, which leads to a release of diSC3-5 and a subsequent increase in fluorescence. […] Without wishing to be bound by theory, it is believed that the adsorption and binding of Chp peptides to the inner membrane and insertion into the lipid bilayer results in membrane permeabilization and pore/ion channel formation, which is concomitant with the collapse of the membrane's electrical potential.

B. multivorans = test: MIC by broth microdilution against B. multivorans; format: cell-based, Burkholderia multivorans; conditions: B. multivorans isolates
Protocol: (§2) MIC values were determined using a modification of the standard broth microdilution reference method defined by the Clinical and Laboratory Standards Institute (CLSI), CLSL. 2015. Methods for Dilution Antimicrobial Susceptibility Tests for Bacteria That Grow Aerobically; Approved Standard-10th Edition. Clinical and Laboratory Standards Institute, Wayne, PA. The modification was based on the replacement of Mueller Hinton Broth with either CAA media (with and without NaCl) or CAA supplemented with 2.5% human serum. MIC is the minimum concentration of peptide sufficient to suppress at least 80% of the bacterial growth compared to control.
Based on these nine most prevalent strains, direct lytic agents, including GN370, AM1, AM2, and AM3, were evaluated against various isolates from each of the 9 strains. MICs and MBECs (Example 3) were determined, and a sputum inhibition test was conducted, as described below in Example 5.
(§3) The MICs for were determined as described below using the broth microdilution method for meropenem, GN370, AM1, AM2, and AM3. The results are shown below in Tables 8-12.

Achromobacter spp. = test: MIC by broth microdilution against Achromobacter spp.; format: cell-based; conditions: Tables 8-12
Protocol: as §2, §3

S. maltophilia [2] = test: Time-kill assay in cystic fibrosis patient sputum, S. maltophilia; format: cell-based, Stenotrophomonas maltophilia; conditions: for effect of sputum on antibacterial activity: 10% CF sputum vs no sputum; for killing by 1 hour, maintained at 24 hours: time-kill
From the text: (§4) Sputum from 5 cystic fibrosis patients was pooled. The resulting mixture was not filtered, as it was very dense and not amenable to sterilization by filtration. Sputum is known to be a complex mixture of DNA, carbohydrates, and lipids ([…], 2016). As used herein, the term “sputum” refers to the mucus present in the respiratory tract of an animal, such as a human. Sputum may increase in thickness due to the irritation or infection, including bacterial infection, and in some instances, may be expelled by the animal while coughing. In certain instances, cystic fibrosis may be characterized by the presence of a thick, sticky mucus or sputum present in the lungs of cystic fibrosis patients. The activity of GN370, AM1, AM2, AM3, and meropenem was determined in the sputum using a time-kill assay format as disclosed in Zhang et al., Antimicrobial peptide therapeutics for cystic fibrosis, Antimicrobial Agents Chemother. 2005; 49(7):2921-2927. […] Untreated controls were included in addition to pretreatment plating (t=0) for a baseline CFU determination. Activity was also determined in the absence of sputum for comparison to activity observed in the presence of sputum.

B. gladioli = format: cell-based, Burkholderia gladioli; conditions: B. gladioli (15); 2-hour treatment
Protocol: as §1

M. kansasii = test: MIC against M. kansasii; format: cell-based, Mycobacterium kansasii; conditions: M. kansasi (ATCC 12478); CAAT media
A. xylosoxidans = test: Time-kill assay in cystic fibrosis patient sputum, A. xylosoxidans; format: cell-based, Achromobacter xylosoxidans; conditions: for effect of sputum on antibacterial activity: 10% CF sputum vs no sputum; for killing by 1 hour, maintained at 24 hours: time-kill
From the text: as §4

P. aeruginosa = test: Serial passage resistance development study, P. aeruginosa; format: cell-based, Pseudomonas aeruginosa; conditions: P. aeruginosa strain CFS 1292, Day 28
S. maltophilia [3] = conditions: for MIC50 / MIC90 / MIC Range: S. maltophilia isolates; for MIC Range: in µg/mL; for MIC: S. maltophilia test organism of the sputum time-kill assay; for activity (MIC) against S. maltophilia isolates: all tested isolates, Tables 8-12
S. maltophilia [4] = test: Serial passage resistance development study, S. maltophilia; format: cell-based, Stenotrophomonas maltophilia; conditions: S. maltophilia, day 28, triplicate

Compound: CC[C@H](C)[C@H](NC(=O)[C@@H](CCCNC(=N)N)NC(=O)[C@H](Cc1ccccc1)NC(=O)CNC(=O)CNC(=O)[C@@H](CCCNC(=N)N)NC(=O)[C@H](CCSC)NC(=O)[C@@H]1CCCN1C(=O)[C@@H](CCCNC(=N)N)NC(=O)[C@H](C)NC(=O)[C@@H](CCCNC(=N)N)NC(=O)[C@H](CC(C)C)NC(=O)[C@H](CC(N)=O)NC(=O)[C@@H](CCCNC(=N)N)NC(=O)[C@@H](CCCCN)NC(=O)[C@@H](CCCCN)NC(=O)[C@@H](NC(=O)[C@H](CC(N)=O)NC(=O)[C@@H](NC(=O)[C@H](C)NC(=O)CNC(=O)[C@@H](CCCNC(=N)N)NC(=O)[C@@H](NC(=O)[C@H](Cc1ccccc1)NC(=O)[C@@H](NC(=O)[C@@H](CCCCN)NC(=O)[C@@H](CCCNC(=N)N)NC(=O)[C@H](CO)NC(=O)[C@@H](CCCCN)NC(=O)[C@@H](CCCCN)NC(=O)[C@@H](CCCCN)NC(=O)[C@H](CO)NC(=O)[C@H](CC(C)C)NC(=O)[C@@H](CCCCN)NC(=O)[C@@H](CCCNC(=N)N)NC(=O)[C@@H](CCCNC(=N)N)NC(=O)[C@@H](CCCCN)NC(=O)[C@@H](N)CCSC)[C@@H](C)CC)[C@@H](C)O)C(C)C)C(C)C)C(=O)O [AM3] (H-M[dK][dR][dR][dK]LS[dK][dK][dK]S[dR][dK]IFT[dR]GAVNV[dK][dK][dR]NL[dR]A[dR]PM[dR]GGF[dR]I-OH; N-terminus and C-terminus assumed)
- MBEC50 (B. cenocepacia): 16 µg/mL
- MBEC90 (B. cenocepacia): 32 µg/mL
- MBEC Range (B. cenocepacia): 1 to 32 µg/mL
- MIC (M. scrofulaceum): 2 µg/mL (≈ 0.438 µM)
- MIC (M. smegmatis): 1 µg/mL (≈ 0.219 µM)
- inner membrane depolarization (diSC3-5) [1]: dose-dependent increase in membrane depolarization
- MIC50 (B. multivorans): > 128 µg/mL
- MIC90 (B. multivorans): > 128 µg/mL
- activity (MIC) against Achromobacter spp. (Achromobacter spp.): variably active
- effect of sputum on antibacterial activity (S. maltophilia [2]): none of GN370, AM1, AM2, and AM3 was inhibited
- Log10 CFU/mL of sputum (S. maltophilia [2]; absence of sputum, 1 hr): 2.3 Log10 CFU/mL of sputum
- Log10 CFU/mL of sputum (S. maltophilia [2]; absence of sputum, 3 hr): 2.3 Log10 CFU/mL of sputum
- Log10 CFU/mL of sputum (S. maltophilia [2]; absence of sputum, 24 hr): 2.3 Log10 CFU/mL of sputum
- Log10 CFU/mL of sputum (S. maltophilia [2]; presence of 10% sputum, 1 hr): 2.3 Log10 CFU/mL of sputum
- Log10 CFU/mL of sputum (S. maltophilia [2]; presence of 10% sputum, 3 hr): 2.3 Log10 CFU/mL of sputum
- Log10 CFU/mL of sputum (S. maltophilia [2]; presence of 10% sputum, 24 hr): 2.3 Log10 CFU/mL of sputum
- killing by 1 hour, maintained at 24 hours (S. maltophilia [2]): complete killing
- MBEC50 (B. gladioli): 4 µg/mL
- MBEC90 (B. gladioli): 16 µg/mL
- MIC (M. kansasii): 1 µg/mL (≈ 0.219 µM)
- effect of sputum on antibacterial activity (A. xylosoxidans): none of GN370, AM1, AM2, and AM3 was inhibited
- Log10 CFU/mL of sputum (A. xylosoxidans; absence of sputum, 1 hr): 4.3 Log10 CFU/mL of sputum
- Log10 CFU/mL of sputum (A. xylosoxidans; absence of sputum, 3 hr): 3.3 Log10 CFU/mL of sputum
- Log10 CFU/mL of sputum (A. xylosoxidans; absence of sputum, 24 hr): 2.3 Log10 CFU/mL of sputum
- Log10 CFU/mL of sputum (A. xylosoxidans; presence of 10% sputum, 1 hr): 2.3 Log10 CFU/mL of sputum
- Log10 CFU/mL of sputum (A. xylosoxidans; presence of 10% sputum, 3 hr): 2.3 Log10 CFU/mL of sputum
- Log10 CFU/mL of sputum (A. xylosoxidans; presence of 10% sputum, 24 hr): 2.3 Log10 CFU/mL of sputum
- killing by 1 hour, maintained at 24 hours (A. xylosoxidans): complete killing
- change in MIC over serial passage (P. aeruginosa): no significant changes
- MIC50 (S. maltophilia [3]): 0.5 µg/mL (≈ 0.109 µM)
- MIC90 (S. maltophilia [3]): 1 µg/mL (≈ 0.219 µM)
- MIC Range (S. maltophilia [3]): 0.016-2
- MIC (S. maltophilia [3]): AM3 (MIC = 0.25)
- activity (MIC) against S. maltophilia isolates (S. maltophilia [3]): highly active
- change in MIC over serial passage (S. maltophilia [4]): no increase in MIC

Compound: M[dR]L[dK]MA[dR][dR][dR]Y[dR]LP[dR][dR][dR]S[dR][dR]LFS[dR]TAL[dR]MHP[dR]N[dR]L[dR][dR]IM[dR]GGI[dR]F [AM2]
- MBEC50 (B. cenocepacia): 16 µg/mL
- MBEC90 (B. cenocepacia): 32 µg/mL
- MBEC Range (B. cenocepacia): 2 to 32 µg/mL
- MIC (M. scrofulaceum): 16 µg/mL
- MIC (M. smegmatis): 0.5 µg/mL
- inner membrane depolarization (diSC3-5) [1]: dose-dependent increase in membrane depolarization
- MIC50 (B. multivorans): > 128 µg/mL
- MIC90 (B. multivorans): > 128 µg/mL
- activity (MIC) against Achromobacter spp. (Achromobacter spp.): variably active
- effect of sputum on antibacterial activity (S. maltophilia [2]): none of GN370, AM1, AM2, and AM3 was inhibited
- Log10 CFU/mL of sputum (S. maltophilia [2]; absence of sputum, 1 hr): 2.3 Log10 CFU/mL of sputum
- Log10 CFU/mL of sputum (S. maltophilia [2]; absence of sputum, 3 hr): 2.3 Log10 CFU/mL of sputum
- Log10 CFU/mL of sputum (S. maltophilia [2]; absence of sputum, 24 hr): 2.3 Log10 CFU/mL of sputum
- Log10 CFU/mL of sputum (S. maltophilia [2]; presence of 10% sputum, 1 hr): 2.3 Log10 CFU/mL of sputum
- Log10 CFU/mL of sputum (S. maltophilia [2]; presence of 10% sputum, 3 hr): 2.3 Log10 CFU/mL of sputum
- Log10 CFU/mL of sputum (S. maltophilia [2]; presence of 10% sputum, 24 hr): 2.3 Log10 CFU/mL of sputum
- killing by 1 hour, maintained at 24 hours (S. maltophilia [2]): complete killing
- MIC (M. kansasii): 2 µg/mL
- effect of sputum on antibacterial activity (A. xylosoxidans): none of GN370, AM1, AM2, and AM3 was inhibited
- Log10 CFU/mL of sputum (A. xylosoxidans; absence of sputum, 1 hr): 3.3 Log10 CFU/mL of sputum
- Log10 CFU/mL of sputum (A. xylosoxidans; absence of sputum, 3 hr): 2.3 Log10 CFU/mL of sputum
- Log10 CFU/mL of sputum (A. xylosoxidans; absence of sputum, 24 hr): 2.3 Log10 CFU/mL of sputum
- Log10 CFU/mL of sputum (A. xylosoxidans; presence of 10% sputum, 1 hr): 2.3 Log10 CFU/mL of sputum
- Log10 CFU/mL of sputum (A. xylosoxidans; presence of 10% sputum, 3 hr): 2.3 Log10 CFU/mL of sputum
- Log10 CFU/mL of sputum (A. xylosoxidans; presence of 10% sputum, 24 hr): 2.3 Log10 CFU/mL of sputum
- killing by 1 hour, maintained at 24 hours (A. xylosoxidans): complete killing
- change in MIC over serial passage (P. aeruginosa): no significant changes
- MIC50 (S. maltophilia [3]): 0.5 µg/mL
- MIC90 (S. maltophilia [3]): 1 µg/mL
- MIC Range (S. maltophilia [3]): 0.03-2
- MIC (S. maltophilia [3]): AM2 (MIC = 0.5)
- activity (MIC) against S. maltophilia isolates (S. maltophilia [3]): highly active
- change in MIC over serial passage (S. maltophilia [4]): no increase in MIC
